Patent US20220177538A1, “CO-AGONISTS AT GLP-1 AND GIP RECEPTORS SUITABLE FOR ORAL DELIVERY” (Novo Nordisk A/S, priority 2020, published 2022)
pEC50: −log10 of the molar value. Read-outs that look alike come from different tables or passages of the source. Starred links: 1 amine or outer side, 2 acyl side, 3 side chain; linkers in the order of their positions; H or OH if unused. Non-standard residues stand in square brackets, D forms with d. Residues, ends and D or L forms follow the SMILES beside them. Groups on a side chain read outwards from the residue. *: point of attachment. C18 diacid = O=C(O)CCCCCCCCCCCCCCCCC(=O)*; γGlu = O=C(O)[C@H](CCC(=O)[*:2])N[*:1]; εLys = N[C@@H](CCCCN[*:1])C(=O)[*:2]; Aib = CC(C)(N)C(=O)O

Key:
human GIP receptor = biological target: T1, human GIP receptor (Homo sapiens, UniProt P48546); experiment: In vitro functional potency, CRE luciferase reporter, whole BHK cells (hGIPR); type: cell-based; conditions: BHK CRE luc2P hGIPR cells
T1 construct: expressed in transfected cells; host or cells: BHK (parent line BHKTS13), clone BHK CRE luc2P hGIPR
T1 sequence (P48546 22-466): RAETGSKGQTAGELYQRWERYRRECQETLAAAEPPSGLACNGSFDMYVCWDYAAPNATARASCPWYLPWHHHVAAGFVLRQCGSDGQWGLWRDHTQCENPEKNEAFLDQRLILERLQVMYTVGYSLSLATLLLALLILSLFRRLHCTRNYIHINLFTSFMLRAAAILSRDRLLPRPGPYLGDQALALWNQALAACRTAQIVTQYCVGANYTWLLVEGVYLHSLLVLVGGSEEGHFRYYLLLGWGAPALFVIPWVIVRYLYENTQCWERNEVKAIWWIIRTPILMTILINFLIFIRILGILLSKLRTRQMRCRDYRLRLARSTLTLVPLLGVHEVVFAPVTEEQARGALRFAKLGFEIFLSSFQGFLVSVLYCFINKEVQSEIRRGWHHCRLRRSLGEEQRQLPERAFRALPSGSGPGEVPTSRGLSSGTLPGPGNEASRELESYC
How it was run: (§1)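 Potencies are replicate means (n≥2) from non-linear log(agonist) vs response fits of CRE-driven luminescence. Cells were overnight-plated BHK CRE luc2P lines transfected with human GIPR or GLP-1R, 5000/well.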

human GLP-1 receptor = human GLP-1 receptor (Homo sapiens, UniProt P43220); experiment: In vitro functional potency, CRE luciferase reporter, whole BHK cells (hGLP-1R); type: cell-based; design: expressed in transfected cells; host or cells: BHK (parent line BHKTS13), clone BHK CRE luc2P hGLP-1R; conditions: BHK CRE luc2P hGLP-1R cells
Sequence of human GLP-1 receptor (P43220 24-463): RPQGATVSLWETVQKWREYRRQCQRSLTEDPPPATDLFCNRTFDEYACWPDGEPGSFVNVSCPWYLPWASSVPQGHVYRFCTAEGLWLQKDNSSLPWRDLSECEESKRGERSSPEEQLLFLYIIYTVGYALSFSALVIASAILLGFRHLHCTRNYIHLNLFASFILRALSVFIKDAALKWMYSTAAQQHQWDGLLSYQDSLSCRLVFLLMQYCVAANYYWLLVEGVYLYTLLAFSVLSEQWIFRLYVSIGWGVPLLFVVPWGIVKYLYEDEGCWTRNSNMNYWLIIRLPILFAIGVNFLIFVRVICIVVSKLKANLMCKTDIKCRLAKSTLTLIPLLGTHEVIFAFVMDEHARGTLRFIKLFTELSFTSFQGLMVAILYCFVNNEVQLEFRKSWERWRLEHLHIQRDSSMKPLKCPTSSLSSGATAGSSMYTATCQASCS
How it was run: as §1

[1] = 0% HSA, read-out: hGIPR, CRE Luc 0% HSA EC50
[2] = hGIPR, CRE Luc 1% HSA EC50, 1% HSA
[3] = 0% HSA, read-out: hGLP-1R, CRE Luc 0% HSA EC50
[4] = hGLP-1R, CRE Luc 1% HSA EC50, 1% HSA

SMILES | pEC50 (human GIP receptor; [1]) | pEC50 (human GIP receptor; [2]) | pEC50 (human GLP-1 receptor; [3]) | pEC50 (human GLP-1 receptor; [4]) | pEC50 (human GIP receptor; hGIPR, CRE Luc 0% HSA EC50, 0% HSA) | pEC50 (human GLP-1 receptor; hGLP-1R, CRE Luc 0% HSA EC50, 0% HSA)
CC[C@H](C)[C@H](NC(=O)[C@H](Cc1ccccc1)NC(=O)[C@H](CCC(=O)O)NC(=O)[C@H](CCCNC(=N)N)NC(=O)[C@H](C)NC(=O)[C@H](C)NC(=O)[C@H](CCC(N)=O)NC(=O)[C@H](CCCCNC(=O)[C@@H](N)CCCCNC(=O)[C@@H](N)CCCCNC(=O)CC[C@H](NC(=O)CCCCCCCCCCCCCCCCC(=O)O)C(=O)O)NC(=O)[C@H](CCC(=O)O)NC(=O)[C@H](CC(C)C)NC(=O)[C@H](CC(C)C)NC(=O)[C@@H](NC(=O)[C@H](CO)NC(=O)[C@H](Cc1ccc(O)cc1)NC(=O)[C@H](CC(=O)O)NC(=O)[C@H](CO)NC(=O)[C@@H](NC(=O)[C@H](Cc1ccccc1)NC(=O)[C@@H](NC(=O)CNC(=O)[C@H](CCC(=O)O)NC(=O)C(C)(C)NC(=O)[C@@H](N)Cc1ccc(O)cc1)[C@@H](C)O)[C@@H](C)O)[C@@H](C)CC)C(=O)N[C@@H](CCC(=O)O)C(=O)N[C@@H](Cc1c[nH]c2ccccc12)C(=O)N[C@@H](CC(C)C)C(=O)N[C@@H](CC(C)C)C(=O)N[C@@H](C)C(=O)NCC(=O)NCC(=O)N1CCC[C@H]1C(=O)N[C@@H](CO)C(=O)N[C@@H](CO)C(=O)NCC(=O)N[C@@H](C)C(=O)N1CCC[C@H]1C(=O)N1CCC[C@H]1C(=O)N1CCC[C@H]1C(=O)N[C@@H](CO)C(=O)O [Compound 31] (H-Y[Aib]EGTFTSDYSILLEK([εLys-εLys-γGlu-C18 diacid])QAAREFIEWLLAGGPSSGAPPPS-OH) | 11.33 | 9.72 | 11.38 | 9.69 | – | –
CC[C@H](C)[C@H](NC(=O)[C@H](Cc1ccccc1)NC(=O)[C@H](CCC(=O)O)NC(=O)[C@H](CCCNC(=N)N)NC(=O)[C@H](C)NC(=O)[C@H](C)NC(=O)[C@H](CCC(N)=O)NC(=O)[C@H](CCCCNC(=O)[C@@H](N)CCCCNC(=O)[C@@H](N)CCCCNC(=O)CC[C@H](NC(=O)CCCCCCCCCCCCCCCCC(=O)O)C(=O)O)NC(=O)[C@H](CCC(=O)O)NC(=O)[C@H](CC(C)C)NC(=O)[C@H](CC(C)C)NC(=O)[C@@H](NC(=O)[C@H](CO)NC(=O)[C@H](Cc1ccc(O)cc1)NC(=O)[C@H](CC(=O)O)NC(=O)[C@H](CO)NC(=O)[C@@H](NC(=O)[C@H](Cc1ccccc1)NC(=O)[C@@H](NC(=O)CNC(=O)[C@H](CCC(=O)O)NC(=O)C(C)(C)NC(=O)[C@@H](N)Cc1ccc(O)cc1)[C@@H](C)O)[C@@H](C)O)[C@@H](C)CC)C(=O)N[C@@H](CCC(=O)O)C(=O)N[C@@H](Cc1c[nH]c2ccccc12)C(=O)N[C@@H](CC(C)C)C(=O)N[C@@H](CC(C)C)C(=O)N[C@@H](CCCNC(=N)N)C(=O)NCC(=O)NCC(=O)N1CCC[C@H]1C(=O)N[C@@H](CCC(=O)O)C(=O)N[C@@H](CO)C(=O)NCC(=O)N[C@@H](C)C(=O)N1CCC[C@H]1C(=O)N1CCC[C@H]1C(=O)N1CCC[C@H]1C(=O)N[C@@H](CO)C(=O)O [Compound 28] (H-Y[Aib]EGTFTSDYSILLEK([εLys-εLys-γGlu-C18 diacid])QAAREFIEWLLRGGPESGAPPPS-OH) | – | 10.06 | – | 9.86 | 11.18 | 11.21
CC[C@H](C)[C@H](NC(=O)[C@H](Cc1ccccc1)NC(=O)[C@H](CCC(=O)O)NC(=O)[C@H](CCC(N)=O)NC(=O)[C@H](C)NC(=O)[C@H](C)NC(=O)[C@H](CCC(N)=O)NC(=O)[C@H](CCCCNC(=O)[C@@H](N)CCCCNC(=O)[C@@H](N)CCCCNC(=O)CC[C@H](NC(=O)CCCCCCCCCCCCCCCCC(=O)O)C(=O)O)NC(=O)[C@H](CCC(=O)O)NC(=O)[C@H](CC(C)C)NC(=O)[C@H](CC(C)C)NC(=O)[C@@H](NC(=O)[C@H](CO)NC(=O)[C@H](Cc1ccc(O)cc1)NC(=O)[C@H](CC(=O)O)NC(=O)[C@H](CO)NC(=O)[C@@H](NC(=O)[C@H](Cc1ccccc1)NC(=O)[C@@H](NC(=O)CNC(=O)[C@H](CCC(=O)O)NC(=O)C(C)(C)NC(=O)[C@@H](N)Cc1ccc(O)cc1)[C@@H](C)O)[C@@H](C)O)[C@@H](C)CC)C(=O)N[C@@H](CCC(=O)O)C(=O)N[C@@H](Cc1c[nH]c2ccccc12)C(=O)N[C@@H](CC(C)C)C(=O)N[C@@H](CC(C)C)C(=O)N[C@@H](C)C(=O)NCC(=O)NCC(=O)N1CCC[C@H]1C(=O)N[C@@H](CO)C(=O)N[C@@H](CO)C(=O)NCC(=O)N[C@@H](C)C(=O)N1CCC[C@H]1C(=O)N1CCC[C@H]1C(=O)N1CCC[C@H]1C(=O)N[C@@H](CO)C(=O)O [Compound 29] (H-Y[Aib]EGTFTSDYSILLEK([εLys-εLys-γGlu-C18 diacid])QAAQEFIEWLLAGGPSSGAPPPS-OH) | 11.42 | 9.99 | 10.77 | 9.42 | – | –
